Values joined by “and” are separate entries in the source; they are usually repeats but may differ in a detail not shown here. Equal values may be shown once. Read-outs that look alike come from different tables or passages of the source. Each block holds one compound with its values, some of them ahead of it.
How the values were obtained:
[1] = for HL, Mean: transformed into the natural logarithm
Description: (§1) Blood and plasma concentration–time profiles were analyzed by standard non-compartmental methods. Individual PK parameters were tabulated and summarized.
(§2) Both drugs were measured by validated liquid extraction methods followed by ultra-performance liquid chromatography tandem mass-spectrometry detection (Dynakin, Derio, Spain).

[2] = test system: patients with advanced solid tumors; settings: cited from earlier work
[3] = test system: SCLC, breast, ovarian, endometrial cancer, NSCLC; settings: cited from earlier work
[4] = test system: patients with advanced solid tumors; assay: Dose escalation and dose-limiting toxicities (phase I, 3+3 design); settings: combination q3wk; paclitaxel on D1 and D8, lurbinectedin on D1
Description: Furthermore, during dose escalation lurbinectedin was converted to a body surface area (BSA)-based dose.
The DL5 cohort was then expanded, converting lurbinectedin to a BSA-based dose of 2.2 mg/m^2 (calculated by dividing 4.0 mg FD by a BSA of 1.8 m^2).
Patient accrual began in Group A, with dose escalation following a standard 3+3 design. […] During dose escalation in Group A, lurbinectedin was converted to a body surface area (BSA)-based dose (calculated by dividing the allocated FD by a BSA of 1.8 m^2).

patients = settings: single-agent weekly paclitaxel; cited from earlier work
clinical = settings: human, in vivo
Description: as §1, §2

[5] = Cycle 1, DL1: paclitaxel 60 / lurbinectedin 3.0 mg FD, mean (SD)
[6] = Cycle 1, DL2: paclitaxel 60 / lurbinectedin 4.0 mg FD, mean (SD)
[7] = Cycle 1, DL3: paclitaxel 60 / lurbinectedin 5.0 mg FD, mean (SD)
[8] = Cycle 1, DL4 (MTD): paclitaxel 80 / lurbinectedin 5.0 mg FD, mean (SD)
[9] = Cycle 1, DL5 (RD): paclitaxel 80 / lurbinectedin 2.2 mg/m^2, mean (SD)
[10] = Cycle 1, DL5 (RD): paclitaxel 80 / lurbinectedin 4.0 mg FD, mean (SD)
[11] = Cycle 1, RD + BEV 80 / 2.2 / 15, mean (SD)
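Wherever AUC is given: blood and plasma drug levels in patients quantified by UPLC tandem mass spectrometry, with PK parameters derived by non-compartmental analysis of concentration–time profiles.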
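Wherever CL is given: blood and plasma drug levels in patients quantified by UPLC tandem mass spectrometry, with PK parameters derived by non-compartmental analysis of concentration–time profiles.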
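Wherever Cmax is given: blood and plasma drug levels in patients quantified by UPLC tandem mass spectrometry, with PK parameters derived by non-compartmental analysis of concentration–time profiles.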
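Wherever HL (terminal half-life) is given: blood and plasma drug levels in patients quantified by UPLC tandem mass spectrometry, with PK parameters derived by non-compartmental analysis of concentration–time profiles.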

Compound: COc1ccc2[nH]c3c(c2c1)CCN[C@]31CS[C@@H]2c3c(OC(C)=O)c(C)c4c(c3[C@H](COC1=O)N1[C@@H]2[C@H]2c3c(cc(C)c(OC)c3O)C[C@@H]([C@@H]1O)N2C)OCO4 [Lurbinectedin]
- AUC ([1]; Cycle 1, DL1: paclitaxel 60 mg/m^2 D1,D8,D15 / lurbinectedin 3.0 mg FD, mean (SD)): 405.9 (129.6) h* μg/L
- CL [1, 5]: 7.8 (2.2) L/h
- Cmax [1, 5]: 97.7 (45.5) μg/L
- HL (terminal half-life) [1, 5]: 52.8 (3.7) h
- Vss [1, 5]: 299.4 (84.4) L
- Vz [1, 5]: 602.1 (193.0) L
- AUC ([1]; Cycle 1, DL2: paclitaxel 60 mg/m^2 D1,D8,D15 / lurbinectedin 4.0 mg FD, mean (SD)): 357.9 (174.2) h* μg/L
- CL [1, 6]: 14.2 (9.4) L/h
- Cmax [1, 6]: 74.0 (18.9) μg/L
- HL (terminal half-life) [1, 6]: 82.1 (65.7) h
- Vss [1, 6]: 733.7 (415.1) L
- Vz [1, 6]: 1161 (563.2) L
- AUC ([1]; Cycle 1, DL3: paclitaxel 60 mg/m^2 D1,D8,D15 / lurbinectedin 5.0 mg FD, mean (SD)): 714.0 (416.3) h* μg/L
- CL [1, 7]: 8.8 (4.0) L/h
- Cmax [1, 7]: 127.0 (74.0) μg/L
- HL (terminal half-life) [1, 7]: 46.6 (15.5) h
- Vss [1, 7]: 343.2 (150.1) L
- Vz [1, 7]: 530.8 (164.6) L
- AUC ([1]; Cycle 1, DL4 (MTD): paclitaxel 80 mg/m^2 D1,D8 / lurbinectedin 5.0 mg FD, mean (SD)): 376.2 (151.4) h* μg/L
- CL [1, 8]: 15.2 (6.0) L/h
- Cmax [1, 8]: 109.5 (28.4) μg/L
- HL (terminal half-life) [1, 8]: 38.6 (8.3) h
- Vss [1, 8]: 401.8 (99.1) L
- Vz [1, 8]: 806.0 (243.4) L
- AUC ([1]; Cycle 1, DL5 (RD): paclitaxel 80 mg/m^2 D1,D8 / lurbinectedin 2.2 mg/m^2, mean (SD)): 440.5 (224.4) h* μg/L
- AUC ([1]; Cycle 1, DL5 (RD): paclitaxel 80 mg/m^2 D1,D8 / lurbinectedin 4.0 mg FD, mean (SD)): 436.2 (238.3) h* μg/L
- CL [1, 9]: 11.1 (5.3) L/h
- Cmax [1, 9]: 96.3 (34.7) μg/L
- HL (terminal half-life) [1, 9]: 49.3 (22.5) h
- Vss [1, 9]: 454.9 (222.6) L
- Vz [1, 9]: 727.6 (346.9) L
- CL [1, 10]: 12.0 (7.0) L/h
- Cmax [1, 10]: 83.9 (42.5) μg/L
- HL (terminal half-life) [1, 10]: 47.1 (23.0) h
- Vss [1, 10]: 420.9 (182.7) L
- Vz [1, 10]: 701.8 (268.9) L
- CL [1, 11]: 13.8 (6.5) L/h
- Cmax [1, 11]: 88.7 (28.9) μg/L
- HL (terminal half-life) [1, 11]: 40.0 (15.7) h
- Vss [1, 11]: 408.5 (161.7) L
- Vz [1, 11]: 724.9 (340.5) L
- AUC ([1]; Cycle 1, RD + BEV: paclitaxel 80 mg/m^2 / lurbinectedin 2.2 mg/m^2 / BEV 15 mg/kg, mean (SD)): 351.2 (175.9) h* μg/L
- differences in PK parameters in the presence or absence of BEV ([1]; RD in Group A vs Group B, Cycle 1): No statistically significant differences
- variability of total clearance (CL) ([1]; all dose levels): Wide variability
- dose linearity of maximum concentration (Cmax) and AUC ([1]; dose levels 3.0–5.0 mg FD in combination with paclitaxel): No dose linearity could be established
- potential drug-drug interaction: CL of each drug at the high AUC of the other drug ([1]; paclitaxel with lurbinectedin): slight decrease
- HL, Mean ([1]; Cycle 1, Group A at the RD (31 patients)): 3.802
- HL, Mean ([1]; Cycle 1, Group B with BEV (12 patients)): 3.603
- recommended dose (RD), single-agent ([2]; 1-h i.v. infusion q3wk): 7.0 mg flat dose (FD) and 7 mg flat dose (FD)
- median half-life ([2]; single agent at the RD (7 mg FD)): 70.6 h
- response rate ([3]; monotherapy, BRCA-unselected breast cancer): 9%
- response rate ([3]; monotherapy, ovarian cancer): 14–23%
- response rate ([3]; monotherapy, second-line treatment of patients with SCLC): 35%
- recommended dose (RD) [4]: 2.2 mg/m^2

- potential drug-drug interaction: CL of each drug at the high AUC of the other drug ([1]; human, in vivo): slight decrease
- variability of total clearance (CL) ([1]; human, in vivo): Wide variability
- Cmax ([1]; human, in vivo, 2.2 mg/m2): 3004 (971.4) μg/L
- CL ([1]; human, in vivo, 4 mg): 31.1 (6.2) L/h
- Cmax ([1]; human, in vivo, 4 mg): 2908 (482.2) μg/L
- Vss ([1]; human, in vivo, 4 mg): 315.3 (89.7) L
- Vz ([1]; human, in vivo, 4 mg): 639.9 (128.6) L
- CL ([1]; human, in vivo, 5 mg): 30.2 (8.6) L/h
- Cmax ([1]; human, in vivo, 5 mg): 3122 (1420) μg/L
- Vss ([1]; human, in vivo, 5 mg): 323.2 (266.8) L
- Vz ([1]; human, in vivo, 5 mg): 627.5 (185.2) L
- clearance (clinical; 2.2 mg/m2, CL): 525 mL/min
- Vd (clinical; 2.2 mg/m2, Vss): 324 L
- Vd (clinical; 2.2 mg/m2, Vz): 662 L
- clearance (clinical; 3 mg, CL): 437 mL/min
- Cmax (clinical; 3 mg): 2370 ng/mL
- Vd (clinical; 3 mg, Vss): 315 L
- Vd (clinical; 3 mg, Vz): 689 L
- half-life (clinical; 4 mg): 29.2 h
- clearance (clinical; 4 mg, CL): 487 mL/min
- Cmax (clinical; 4 mg): 1500 ng/mL
- Vd (clinical; 4 mg, Vss): 577 L
- Vd (clinical; 4 mg, Vz): 934 L
- clearance (clinical; 5 mg, CL): 575 mL/min
- Cmax (clinical; 5 mg): 1980 ng/mL
- Vd (clinical; 5 mg, Vss): 430 L
- Vd (clinical; 5 mg, Vz): 858 L
Compound: CC(=O)O[C@H]1C(=O)[C@@]2(C)[C@H]([C@H](OC(=O)c3ccccc3)[C@]3(O)C[C@H](OC(=O)[C@H](O)[C@@H](NC(=O)c4ccccc4)c4ccccc4)C(C)=C1C3(C)C)[C@]1(OC(C)=O)CO[C@@H]1C[C@@H]2O [Paclitaxel]
- response rate ([3]; single-agent weekly 80 mg/m^2/week, metastatic breast cancer): 22–42%
- response rate ([3]; single-agent weekly 80 mg/m^2/week, relapsed ovarian cancer): 21–60%
- response rate ([3]; single-agent weekly 80 mg/m^2/week, relapsed/refractory SCLC): 20–27%
- incidence of peripheral neuropathy, grade 3/4 (patients): 3–21%

Compound: Bevacizumab
- improvement in ORR with the addition of BEV to chemotherapy vs. chemotherapy alone ([3]; recurrent ovarian cancer and previously untreated NSCLC): 15–20%
